Converted amounts (≈) assume the structure as drawn.
Key:
Assay in all cases: ≥ marks a high value that may be exact or a test limit, other limits are often not marked, values filed in µg/mL are converted to µM
[1] = test system: Pseudomonas aeruginosa KCTC 2004
[2] = test system: Escherichia coli CCARM 1238
[3] = test system: Acinetobacter baumannii CCARM 12005
[4] = test system: Pseudomonas aeruginosa KCTC 1637
[5] = test system: Salmonella typhimurium CCARM 8009
[6] = test system: Escherichia coli CCARM 1229
[7] = test system: Pseudomonas aeruginosa CCARM 2095
[8] = test system: Salmonella typhimurium CCARM 8007
[9] = test system: Acinetobacter baumannii CCARM 12037
[10] = test system: Pseudomonas aeruginosa KCTC 2513
[11] = test system: Salmonella typhimurium KCTC 1926
[12] = test system: Staphylococcus aureus CCARM 3114
[13] = test system: Escherichia coli KCTC 1682
[14] = test system: Bacillus subtilis KCTC 3068
[15] = test system: Escherichia coli KCTC 2593
[16] = test system: Staphylococcus aureus CCARM 3090
[17] = test system: Salmonella typhimurium CCARM 8003
[18] = test system: Pseudomonas aeruginosa CCARM 2003
[19] = test system: Staphylococcus aureus CCARM 3126
[20] = test system: Staphylococcus epidermidis KCTC 1917
[21] = test system: Escherichia coli KCTC 2571
[22] = test system: Staphylococcus aureus CCARM 3108
[23] = test system: Staphylococcus aureus CCARM 3089
[24] = test system: Staphylococcus aureus KCTC 1916
[25] = test system: Staphylococcus aureus KCTC 1621
[26] = test system: Bacillus subtilis KCTC 1022
[27] = test system: Bacillus subtilis KCTC 1021
[28] = test system: Pseudomonas aeruginosa CCARM 2002
[29] = test system: Acinetobacter baumannii CCARM 12036
[30] = test system: Staphylococcus aureus KCTC 3881
[31] = test system: Acinetobacter baumannii CCARM 12035
[32] = test system: Pseudomonas aeruginosa CCARM 2163
[33] = test system: Candida albicans FRR 5580
[34] = test system: Pseudomonas aeruginosa ATCC 9027
[35] = test system: Streptococcus pneumoniae BCRC 10794
[36] = test system: Staphylococcus aureus BCRC 10780
Bacillus subtilis PS832 = test system: Bacillus subtilis PS832
[37] = test system: Staphylococcus epidermidis ATCC 12228
[38] = test system: Klebsiella aerogenes ATCC 13048
Escherichia coli DL7 = test system: Escherichia coli DL7
[39] = test system: Staphylococcus aureus ATCC 29313
[40] = test system: Pseudomonas aeruginosa ATCC 27853
[41] = test system: Xanthomonas axonopodis pv. glycines ISBF 327
[42] = test system: Escherichia coli ATCC 25922

## CC[C@H](C)[C@H](NC(=O)CNC(=O)[C@H](CCCN=C(N)N)NC(=O)[C@H](Cc1ccccc1)NC(=O)[C@@H](NC(=O)[C@H](Cc1cnc[nH]1)NC(=O)[C@H](Cc1cnc[nH]1)NC(=O)[C@H](Cc1ccccc1)NC(=O)[C@H](C)N)[C@@H](C)CC)C(=O)N[C@H](C(=O)N[C@@H](Cc1cnc[nH]1)C(=O)N[C@H](C(=O)NCC(=O)N[C@@H](CCCCN)C(=O)N[C@H](C(=O)N[C@H](C(=O)N[C@@H](Cc1cnc[nH]1)C(=O)N[C@@H](CCCN=C(N)N)C(=O)N[C@@H](CC(C)C)C(=O)N[C@H](C(=O)N[C@H](C(=O)NCC(=O)O)[C@@H](C)O)C(C)C)[C@@H](C)CC)[C@@H](C)O)C(C)C)C(C)C [AFHHIFRGIVHVGKTIHRLVTG]
[1]
  MIC: 4 µM (≈ 9.98 µg/mL)
[2]
  MIC: 8 µM (≈ 20 µg/mL)
[3]
  MIC: 2 µM (≈ 4.99 µg/mL)
[4]
  MIC: 4 µM (≈ 9.98 µg/mL)
[5]
  MIC: 8 µM (≈ 20 µg/mL)
[6]
  MIC: 8 µM (≈ 20 µg/mL)
[7]
  MIC: 2 µM (≈ 4.99 µg/mL)
[8]
  MIC: 8 µM (≈ 20 µg/mL)
[9]
  MIC: 2 µM (≈ 4.99 µg/mL)
[10]
  MIC: 8 µM (≈ 20 µg/mL)
[11]
  MIC: 8 µM (≈ 20 µg/mL)
[12]
  MIC: 8 µM (≈ 20 µg/mL)
[13]
  MIC: 2 µM (≈ 4.99 µg/mL)
[14]
  MIC: 4 µM (≈ 9.98 µg/mL)
[15]
  MIC: 2 µM (≈ 4.99 µg/mL)
[16]
  MIC: 8 µM (≈ 20 µg/mL)
[17]
  MIC: 8 µM (≈ 20 µg/mL)
[18]
  MIC: 2 µM (≈ 4.99 µg/mL)
[19]
  MIC: 8 µM (≈ 20 µg/mL)
[20]
  MIC: 2 µM (≈ 4.99 µg/mL)
[21]
  MIC: 2 µM (≈ 4.99 µg/mL)
[22]
  MIC: 8 µM (≈ 20 µg/mL)
[23]
  MIC: 8 µM (≈ 20 µg/mL)
[24]
  MIC: 1 µM (≈ 2.5 µg/mL)
[25]
  MIC: 1 µM (≈ 2.5 µg/mL)
[26]
  MIC: 1 µM (≈ 2.5 µg/mL)
[27]
  MIC: 4 µM (≈ 9.98 µg/mL)
[28]
  MIC: 2 µM (≈ 4.99 µg/mL)
[29]
  MIC: 2 µM (≈ 4.99 µg/mL)
[30]
  MIC: 2 µM (≈ 4.99 µg/mL)
[31]
  MIC: 2 µM (≈ 4.99 µg/mL)
[32]
  MIC: 2 µM (≈ 4.99 µg/mL)

## CC(C)[C@H](NC(=O)[C@@H]1CCCN1C(=O)[C@@H](N)Cc1ccccc1)C(=O)N[C@H](C(=O)N[C@@H](Cc1c[nH]c2ccccc12)C(=O)N[C@@H](CCCN=C(N)N)C(=O)N[C@@H](Cc1c[nH]c2ccccc12)C(=O)N[C@@H](Cc1c[nH]c2ccccc12)C(=O)N[C@@H](CCCCN)C(=O)N[C@@H](Cc1c[nH]c2ccccc12)C(=O)N[C@@H](Cc1c[nH]c2ccccc12)C(=O)N[C@@H](CCCCN)C(=O)NCC(=O)O)[C@@H](C)O [FPVTWRWWKWWKG]
[33]
  MIC: ≥ 134 µM
[34]
  MIC: 67.1 µM (≈ 125 µg/mL)

## CC[C@H](C)[C@H](NC(=O)[C@H](Cc1cnc[nH]1)NC(C)=O)C(=O)N[C@H](C(=O)N[C@@H](CCCCN)C(=O)NCC(=O)N[C@@H](CC(C)C)C(N)=O)[C@@H](C)CC [HIIKGL]
[35]
  MIC: ≥ 147 µM
[36]
  MIC: ≥ 147 µM

## CC[C@H](C)[C@H](NC(=O)[C@H](CCCN=C(N)N)NC(=O)[C@H](CCCCN)NC(=O)[C@H](CC(C)C)NC(=O)[C@H](CC(C)C)NC(=O)CNC(=O)[C@H](Cc1cnc[nH]1)NC(=O)[C@H](C)NC(=O)[C@@H](N)CC(=O)O)C(=O)N[C@@H](CCCCN)C(=O)N[C@H](C(=O)N[C@@H](CC(C)C)C(=O)N[C@@H](CC(C)C)C(N)=O)[C@@H](C)O [DAHGLLKRIKTLL]
Bacillus subtilis PS832
  MIC: 2 µM (≈ 2.95 µg/mL)
[37]
  MIC: 16 µM (≈ 23.6 µg/mL)
[38]
  MIC: ≥ 32 µM
Escherichia coli DL7
  MIC: 8 µM (≈ 11.8 µg/mL)

## CC[C@H](C)[C@H](NC(=O)CN)C(=O)NCC(=O)N[C@@H](CC(=O)O)C(=O)N[C@H](C(=O)N[C@@H](CC(C)C)C(=O)N[C@@H](CCCCN)C(=O)N[C@@H](CC(N)=O)C(=O)N[C@@H](CC(C)C)C(=O)N[C@@H](C)C(=O)N[C@@H](CCCCN)C(=O)N[C@@H](C)C(=O)N[C@@H](C)C(=O)NCC(=O)N[C@@H](CCCCN)C(=O)N[C@@H](C)C(=O)N[C@@H](C)C(=O)N[C@@H](CC(C)C)C(=O)N[C@@H](Cc1cnc[nH]1)C(=O)N[C@@H](C)C(=O)N[C@H](C(=O)NCC(=O)N[C@@H](CCC(=O)O)C(=O)N[C@@H](CO)C(=O)N[C@@H](CC(C)C)C(N)=O)C(C)C)[C@@H](C)CC [GIGDILKNLAKAAGKAALHAVGESL]
[39]
  MIC: 19 µM (≈ 45.9 µg/mL)
[40]
  MIC: 77 µM (≈ 186 µg/mL)
[41]
  MIC: 2 µM (≈ 4.83 µg/mL)
[42]
  MIC: 19 µM (≈ 45.9 µg/mL)

Source: DBAASP
